Like-named read-outs stand apart in the source and are kept apart here.
Tests used:
GPR88 KO and WT mice [1] = experiment: Phencyclidine-stimulated locomotor hyperactivity; type: in vivo
[2] = target: T1, striatal dopamine D2 receptors (Mus musculus, UniProt P61168); experiment: [^3H]spiperone binding to striatal membrane preparations; parameters: species or system mice; settings: pool of 10
T1 construct: from tissue; host or cells: mouse striatum (membrane preparation / homogenate)
Experimental: Striata from 10 mice (male and female, WT & GPR88 KO) were pooled and homogenized in a motor-driven POLYTRON™ homogenizer (Kinematica AG, Newark, N.J.) at setting six for 10 seconds in 3 mL per 100 mg of wet tissue in 50 mM Tris-HCl buffer, pH 7.4, containing 120 mM NaCl, 5 mM KCl, 1.5 mM CaCl2, 4 mM MgCl2, and 1 mM EDTA. […] The binding of each concentration of radioligand was determined in duplicate. Incubations were carried out at room temperature for 120 minutes. The final concentration of the membrane protein in each binding assay was approximately 70 μg/ml. Butaclamol (+), (10 μM), (Sigma-Aldrich, St. Louis, Mo.) was used to define the nonspecific binding. The incubations were terminated by rapid filtration using a Wallac Tomtec harvester (Waltham, Mass.) and buffer-presoaked glass fiber filter mats (GF/B, Whatman Inc. Florham Park, N.J.). […] The radioactivity of the filters was then counted in a Wallac 1205 scintillation counter (Perkin Elmer Life and Analytical Sciences).
The estimates of Bmax (the number of available binding receptors) and Kd (the dissociation constant) were calculated by fitting the specific binding data with nonlinear regression using GraphPad PRISM™ data analysis software (GraphPad Software, San Diego, Calif.).

GPR88 KO and WT mice [3] = experiment: Amphetamine-stimulated locomotor hyperactivity; type: in vivo; settings: 3 mg/kg i.p., 40-90 min
Experimental: The amphetamine-stimulated locomotor hyperactivity assay is another type of assay to model the neuropathological states in schizophrenia, similar to the hyperdopaminergia in the ventral striatum. To measure spontaneous activity and amphetamine-stimulated locomotor hyperactivity, the mice were individually placed in Opto-Veramax-3 monitor cages (Columbus Instruments, Columbus, Ohio) and allowed to habituate for 30 minutes with room light and white noise on. After habituation, each mouse was injected with amphetamine (AMPH, 3 mg/kg) in the intraperitoneum. During the first 30 minutes, the spontaneous activity was recorded every 10 minutes. After amphetamine administration, amphetamine-stimulated locomotor hyperactivity was measured every 10 minutes over a 60 minutes time span by the activity monitor. Accuscan Versamax and Versadat software (Columbus Instruments, Columbus, Ohio) were used to convert the infrared beam breaks into horizontal activity counts. […] Males and females were analyzed separately.

striatal dopamine = experiment: In vivo striatal microdialysis; settings: 3 mg/kg i.p., male and female GPR88 KO and WT mice, dialysates for 3 hours
Experimental: Chromatographic separations were performed using a Capcell PAK™, Strong Cation Exchange columns (5 μm UG80, 1.5×150 mm; Shiseido, Phenomenex, USA). The mobile phase comprised (mM) 13 Na2HPO4, 87 NaH2PO4, 0.1 EDTA and 20% methanol, was adjusted to pH 6 and delivered at 0.2 ml/minutes at 40° C.

GPR88 KO and WT mice [4] = experiment: Apomorphine-induced climbing and stereotypy; type: in vivo
Experimental: The GPR88 KO and WT mice were acclimated to a wire cage (cylindrical ½″×½″ mesh with the dimensions of 4½″ d×5½″ h) for at least 2 hours before testing to allow proper habituation. […] (+ present, − absent). Readings were repeated every 5 minutes during a 30-minute test session.
The behavioral assessment was conducted over three conditions in succession: (1) an evaluation of the response to a subcutaneous vehicle (0.25% TWEEN® 80) injection to establish a baseline; (2) followed by an evaluation of the response to a dose of 0.3 mg/kg subcutaneous apomorphine injection; (3) followed by an evaluation of the response to 1 mg/kg subcutaneous apomorphine injection. Behavioral observation began 5 minutes after each injection. Vehicle was given at T0 minutes with observational assessment from T5-T35 minutes and habituation followed from T35-T65 minutes.
At T65, the 0.3 mg/kg dose of apomorphine was administered. Behavioral observation for the 0.3 mg/kg dose of apomorphine was from T70-T100, followed by another habituation from T100-T130 minutes.
At T130 min, the 1.0 mg/kg dose of apomorphine was administered and then the mice were scored from T135-T165 min. For each subject, the climbing scores were totaled for each observational period (maximum=12 per animal). Stereotypy scores were also summed up (maximum=6 per animal). […] Males and females were analyzed separately.

dopamine D2 receptors = dopamine D2 receptors (Mus musculus, UniProt P61168); settings: 1 mM dopamine, striatal membranes
Chain of dopamine D2 receptors (P61168 whole entry): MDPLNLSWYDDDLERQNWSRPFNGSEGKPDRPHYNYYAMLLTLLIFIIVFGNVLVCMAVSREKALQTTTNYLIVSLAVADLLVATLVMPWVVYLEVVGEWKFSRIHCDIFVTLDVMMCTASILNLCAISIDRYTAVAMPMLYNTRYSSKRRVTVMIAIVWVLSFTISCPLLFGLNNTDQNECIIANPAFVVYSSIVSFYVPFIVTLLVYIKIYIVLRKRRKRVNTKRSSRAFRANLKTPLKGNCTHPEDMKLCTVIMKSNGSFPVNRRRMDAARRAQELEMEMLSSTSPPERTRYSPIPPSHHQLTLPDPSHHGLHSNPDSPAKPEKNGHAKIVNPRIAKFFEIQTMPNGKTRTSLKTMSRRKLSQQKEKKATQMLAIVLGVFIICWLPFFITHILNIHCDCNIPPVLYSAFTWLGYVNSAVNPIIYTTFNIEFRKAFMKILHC
Experimental: Briefly, striata were collected from the mice (9 GPR88 KO or WT) and frozen at 80° C. until use. The tissue was homogenized in 1:100 volume (wet weight/volume) of ice-cold K-HEPES buffer (20 mM, pH=7.6), containing 7 mM of MgCl2, 100 mM of NaCl, 1 mM of EDTA, and 1 mM of DTT (buffer A), and centrifuged at 45,000 g for 10 minutes at 4° C. The membrane pellet was resuspended in 100 volumes (w/v) of fresh buffer A and re-centrifuged under the same conditions.
The incubation was started by addition of [^35S]GTPγS (final concentration 0.5 nM) and proceeded for 90 minutes at 30° C. The assay was terminated by filtration through a filter plate (GF/B, Perkin Elmer Life and Analytical Sciences) with five washings of cold buffer A (350 μl). The filter plate was air-dried and the radioactivity content of the filters was counted in 25 μl scintillation cocktail MICROSCINT™ 20 (Perkin Elmer Life and Analytical Sciences) by a Perkin Elmer TopCount NXT scintillation counter.

GPR88 KO and WT mice [5] = experiment: Antipsychotic block of apomorphine-induced climbing and stereotypy; type: in vivo
Experimental: Observation and scoring for climbing and stereotypy were performed as described in Example 6. […] Males and females were analyzed separately. […] For graphical representation, the data was normalized to the amount of climbing and stereotypy shown by the vehicle treated control group.

GPR88 KO and WT mice [6] = experiment: Haloperidol-induced catalepsy; type: in vivo; settings: 1 mg/kg i.p., 30-120 minutes, male and female mice
Experimental: Maintenance of this position was considered catalepsy. […] Males and females were analyzed separately.

GPR88 KO and WT mice [7] = settings: 0.54 mg/kg i.p. 30 minutes before testing, PPI averaged across 3 dB levels
Experimental: To detect potential phenotypic deficits in the GPR88 knockout mice, they were first evaluated for startle habituation. In brief, mice were tested using the SR-LAB (San Diego Instruments, San Diego, Calif.) system. Each system consists of a ventilated sound attenuated chamber containing a stabilimeter consisting of a Plexiglas cylinder (12.5 cm length, 3.5 cm diameter) mounted on a Plexiglas frame. Acoustic stimuli were delivered through a speaker mounted in the enclosure ceiling, that was 27 cm above the cylinder. Startle responses were transduced by a piezoelectric accelerometer mounted beneath the frame. Output signals were digitized and rectified as consecutive 1-millisecond (msec) readings (a total of 65 were recorded, and startle response was expressed as an averaged response across these samples) on a computer using the San Diego Instrument software. Mice were placed individually in the chamber for a 5-minute acclimation period at a background noise level of 64 dB.
Prepulse inhibition was measured immediately following the startle sensitivity test. […] Percentage prepulse inhibition was calculated as 100 minus the ratio of the average startle response observed at each prepulse+pulse trial relative to the pulse alone stimulus, times 100. The percentage prepulse at across dB levels was analyzed by repeated-measures ANOVA. […] Males and females were analyzed separately. […]

[8] = GPR88 KO and WT female mice, 0.3 mg/kg haloperidol
[9] = male WT mice, 0.54 and 1.0 mg/kg haloperidol

T1 sequence (P61168 whole entry): as above

`c1ccc(C2(N3CCCCC3)CCCCC2)cc1` [PCP, phencyclidine] was tested, and the PCP-stimulated locomotor activity (GPR88 KO and WT mice [1]; female WT and GPR88 KO mice, 1.0 mg/kg) was “Neither of the genotypes responded”, the PCP-stimulated locomotor activity (GPR88 KO and WT mice [1]; female WT and GPR88 KO mice, 1.7 mg/kg or 3.0 mg/kg) was “increased locomotor activity” and the PCP-stimulated locomotor activity (GPR88 KO and WT mice [1]; male WT and GPR88 KO mice, highest dose 3 mg/kg i.p.) was “increased locomotor activity”. For the same compound, the PCP-stimulated locomotor activity (GPR88 KO and WT mice [1]; male WT and GPR88 KO mice, lower doses (1.0, 1.7 mg/kg)) was “Neither of the genotypes responded”.

`O=C(CCCN1CCC2(CC1)C(=O)NCN2c1ccccc1)c1ccc(F)cc1` [[^3H]spiperone] was tested, and the “Bmax (number of available binding receptors)” value ([2]; striatal membranes of GPR88 KO mice) was 1.83 pmol/mg and the “Bmax (number of available binding receptors)” value ([2]; striatal membranes of WT mice) was 1.34 pmoles/mg protein.

For `CC(N)Cc1ccccc1` (centres unmarked) [amphetamine], the “locomotor activity after amphetamine administration” value (GPR88 KO and WT mice [3]; GPR88 KO male mice) was “significant increase in activity”, the “locomotor activity after amphetamine administration” value (GPR88 KO and WT mice [3]; female mice) was “significant increase in activity” and the “striatal extracellular dopamine after amphetamine” value (striatal dopamine) was “significant and equal increase in dopamine”.

`CN1CCc2cccc3c2[C@H]1Cc1ccc(O)c(O)c1-3` [apomorphine] was tested, and the “apomorphine-induced climbing scores, dose effect” value (GPR88 KO and WT mice [4]; female GPR88 KO and WT mice, 1 mg/kg s.c.) was “the most climbing”, the “apomorphine-induced stereotypy scores, dose effect” value (GPR88 KO and WT mice [4]; male GPR88 KO and WT mice, 1 mg/kg s.c.) was “maximal stereotypy” and the “apomorphine-induced climbing scores, dose effect” value (GPR88 KO and WT mice [4]; male GPR88 KO and WT mice, vehicle, 0.3 and 1 mg/kg s.c.) was “climbing increasing with the dose”.

For `NCCc1ccc(O)c(O)c1` [dopamine], the “stimulation of [^35S]GTPγS binding in GPR88 KO mice relative to WT mice” value (dopamine D2 receptors) was “twice”.

`O=C(CCCN1CCC(O)(c2ccc(Cl)cc2)CC1)c1ccc(F)cc1` [haloperidol] was tested, and the “block of apomorphine-induced climbing” value (GPR88 KO and WT mice [5]; [8]) was “full block of climbing”, the “block of apomorphine-induced stereotypy” value (GPR88 KO and WT mice [5]; [8]) was “full block of stereotypy” and the “minimal effective dose, apomorphine-induced climbing and stereotypy assay (summary)” value (GPR88 KO and WT mice [5]; GPR88 KO male mice) was 0.54 mg/kg. For the same compound, the “minimal effective dose, apomorphine-induced climbing and stereotypy assay (summary)” value (GPR88 KO and WT mice [5]; WT male mice) was < 0.3 mg/kg, the “block of apomorphine-induced climbing” value (GPR88 KO and WT mice [5]; male GPR88 KO mice, 1.0 mg/kg haloperidol) was “full block of climbing” and the “block of apomorphine-induced climbing” value (GPR88 KO and WT mice [5]; [9]) was “full block of climbing”. The “block of apomorphine-induced stereotypy” value (GPR88 KO and WT mice [5]; [9]) was “full block of stereotypy” and the “catalepsy (percentage of maximum possible catalepsy), GPR88 KO versus WT” value (GPR88 KO and WT mice [6]) was “equivalent levels of catalepsy”.

With `Cc1nc2n(c(=O)c1CCN1CCC(c3noc4cc(F)ccc34)CC1)CCCC2` [risperidone] the “percentage prepulse inhibition (PPI), treatment versus vehicle” value (GPR88 KO and WT mice [7]; male GPR88 KO mice) was “increasing PPI over untreated” and the “percentage prepulse inhibition (PPI), treatment versus vehicle” value (GPR88 KO and WT mice [7]; male WT mice) was “increasing PPI over untreated”.
